Test system: MV-4-11 cells
Experiment: Gene expression microarray analysis (Affymetrix PrimeView) and GSEA
Type: cell-based, human
Set-up: RFU PODN (11730768_x_at) / Fold change /veh PODN (11730768_x_at) / RFU LINC00158 (11744669_a_at) / Fold change /veh LINC00158 (11744669_a_at) / RFU DUSP10 (11751237_a_at) / Fold change /veh DUSP10 (11751237_a_at) / RFU ID3 (11757404_x_at) / Fold change /veh ID3 (11757404_x_at) / RFU PLEKHG5 (11737974_s_at) / Fold change /veh PLEKHG5 (11737974_s_at) / RFU LRRC4B (11730491_at) / Fold change /veh LRRC4B (11730491_at) / RFU GIMAP4 (11747438_a_at) / Fold change /veh GIMAP4 (11747438_a_at) / RFU KRT8 (11758183_x_at) / Fold change /veh KRT8 (11758183_x_at) / RFU CNN1 (11734310_a_at) / Fold change /veh CNN1 (11734310_a_at) / RFU VPS37D (11726825_at) / Fold change /veh VPS37D (11726825_at) / RFU C10orf10 (11716522_x_at) / Fold change /veh C10orf10 (11716522_x_at) / RFU KIR2DL2 /// KIR2DL4 /// KIR2DL5A /// KIR2DL5B /// KIR2DS1 /// KIR2DS2 /// KIR2DS3 /// KIR2DS4 /// KIR3DL3 /// KIR3DL3 /// KIR3DS1 (11738374_at) / Fold change /veh KIR2DL2 /// KIR2DL4 /// KIR2DL5A /// KIR2DL5B /// KIR2DS1 /// KIR2DS2 /// KIR2DS3 /// KIR2DS4 /// KIR3DL3 /// KIR3DL3 /// KIR3DS1 (11738374_at) / RFU C1QL1 (11718748_at) / Fold change /veh C1QL1 (11718748_at) / RFU TMPRSS4 (11747572_a_at) / Fold change /veh TMPRSS4 (11747572_a_at) / RFU HAMP (11756126_x_at) / Fold change /veh HAMP (11756126_x_at) / RFU RNFT2 (11725882_a_at) / Fold change /veh RNFT2 (11725882_a_at) / RFU NR4A2 (11747474_a_at) / Fold change /veh NR4A2 (11747474_a_at) / RFU ABCC12 (11746883_a_at) / Fold change /veh ABCC12 (11746883_a_at) / RFU TMEM136 (11760407_x_at) / Fold change /veh TMEM136 (11760407_x_at) / RFU CLDN22 /// WWC2 (11732394_at) / Fold change /veh CLDN22 /// WWC2 (11732394_at) / RFU HLA-DPB1 (11760878_x_at) / Fold change /veh HLA-DPB1 (11760878_x_at) / RFU SPINT1 (11716480_a_at) / Fold change /veh SPINT1 (11716480_a_at) / RFU GAP43 (11754022_s_at) / Fold change /veh GAP43 (11754022_s_at) / RFU A4GNT (11735810_at) / Fold change /veh A4GNT (11735810_at) / RFU PRB3 (11715151_x_at) / Fold change /veh PRB3 (11715151_x_at) / RFU TUBB4B (11761932_at) / Fold change /veh TUBB4B (11761932_at) / RFU CAPN14 (11732068_a_at) / Fold change /veh CAPN14 (11732068_a_at) / RFU TMCC2 (11721928_a_at) / Fold change /veh TMCC2 (11721928_a_at) / RFU IRGQ (11745062_a_at) / Fold change /veh IRGQ (11745062_a_at) / RFU FAM174B (11720279_a_at) / Fold change /veh FAM174B (11720279_a_at) / RFU TMPRSS4 (11748680_a_at) / Fold change /veh TMPRSS4 (11748680_a_at) / RFU FAM212B (11763350_a_at) / Fold change /veh FAM212B (11763350_a_at) / RFU PLEKHG5 (11743358_a_at) / Fold change /veh PLEKHG5 (11743358_a_at) / RFU ZSCAN30 (11745921_a_at) / Fold change /veh ZSCAN30 (11745921_a_at) / RFU CMKLR1 (11741424_a_at) / Fold change /veh CMKLR1 (11741424_a_at) / RFU LOC101060620 /// MAPK8IP1 (11723275_at) / Fold change /veh LOC101060620 /// MAPK8IP1 (11723275_at) / RFU SPTSSB (11747773_x_at) / Fold change /veh SPTSSB (11747773_x_at) / RFU PRSS12 (11739890_at) / Fold change /veh PRSS12 (11739890_at) / RFU BIN1 (11741810_x_at) / Fold change /veh BIN1 (11741810_x_at) / RFU WNT11 (11732464_a_at) / Fold change /veh WNT11 (11732464_a_at) / RFU C10orf10 (11716521_a_at) / Fold change /veh C10orf10 (11716521_a_at) / RFU C5orf56 (11738089_at) / Fold change /veh C5orf56 (11738089_at) / RFU CYB561 (11721691_x_at) / Fold change /veh CYB561 (11721691_x_at) / RFU ANKRD19P (11752326_a_at) / Fold change /veh ANKRD19P (11752326_a_at) / RFU OR2T12 /// OR2T33 /// OR2T8 (11738714_s_at) / Fold change /veh OR2T12 /// OR2T33 /// OR2T8 (11738714_s_at) / RFU VCAN (11748164_a_at) / Fold change /veh VCAN (11748164_a_at) / RFU JSRP1 (11732532_at) / Fold change /veh JSRP1 (11732532_at) / RFU KRTAP10-11 (11738290_x_at) / Fold change /veh KRTAP10-11 (11738290_x_at) / RFU MYO3A (11730013_a_at) / Fold change /veh MYO3A (11730013_a_at) / RFU EBF3 (11725865_a_at) / Fold change /veh EBF3 (11725865_a_at) / RFU CAMK2N1 (11719241_x_at) / Fold change /veh CAMK2N1 (11719241_x_at) / RFU C5orf56 (11738088_a_at) / Fold change /veh C5orf56 (11738088_a_at) / RFU OLFML3 (11715873_a_at) / Fold change /veh OLFML3 (11715873_a_at) / RFU LOC100653217 /// NTM (11731650_a_at) / Fold change /veh LOC100653217 /// NTM (11731650_a_at) / RFU MAPK11 (11762145_a_at) / Fold change /veh MAPK11 (11762145_a_at) / RFU FIZ1 (11724087_x_at) / Fold change /veh FIZ1 (11724087_x_at) / RFU OASL (11726364_x_at) / Fold change /veh OASL (11726364_x_at) / RFU SOX15 (11748057_x_at) / Fold change /veh SOX15 (11748057_x_at) / RFU CD79A (11719716_a_at) / Fold change /veh CD79A (11719716_a_at) / RFU HIST1H1D (11736915_at) / Fold change /veh HIST1H1D (11736915_at) / RFU CASKIN2 (11723855_a_at) / Fold change /veh CASKIN2 (11723855_a_at) / RFU LOC730098 (11760151_x_at) / Fold change /veh LOC730098 (11760151_x_at) / RFU OR4N2 (11742367_at) / Fold change /veh OR4N2 (11742367_at) / RFU PRRT2 (11749266_a_at) / Fold change /veh PRRT2 (11749266_a_at) / RFU SNX32 (11753110_a_at) / Fold change /veh SNX32 (11753110_a_at) / RFU CDHR5 (11726645_a_at) / Fold change /veh CDHR5 (11726645_a_at) / RFU RCAN1 (11760418_a_at) / Fold change /veh RCAN1 (11760418_a_at) / RFU FAM167A (11723789_a_at) / Fold change /veh FAM167A (11723789_a_at) / RFU FAM26E (11764081_at) / Fold change /veh FAM26E (11764081_at) / RFU ISYNA1 (11749810_s_at) / Fold change /veh ISYNA1 (11749810_s_at) / RFU ACY1 (11761880_at) / Fold change /veh ACY1 (11761880_at) / RFU 11764098_at / Fold change /veh 11764098_at / RFU SAMD14 (11745864_x_at) / Fold change /veh SAMD14 (11745864_x_at) / RFU NPB (11741838_a_at) / Fold change /veh NPB (11741838_a_at) / RFU TMPRSS6 (11731388_a_at) / Fold change /veh TMPRSS6 (11731388_a_at) / RFU KRTAP10-2 (11738614_at) / Fold change /veh KRTAP10-2 (11738614_at) / RFU ARHGAP8 /// PRR5-ARHGAP8 (11727945_x_at) / Fold change /veh ARHGAP8 /// PRR5-ARHGAP8 (11727945_x_at) / RFU KRTAP5-7 /// NADSYN1 (11734609_at) / Fold change /veh KRTAP5-7 /// NADSYN1 (11734609_at) / RFU RASL12 (11751679_a_at) / Fold change /veh RASL12 (11751679_a_at) / RFU CDKN2B (11736163_a_at) / Fold change /veh CDKN2B (11736163_a_at) / RFU PRF1 (11729649_at) / Fold change /veh PRF1 (11729649_at) / RFU, ZNF638 /// ZNF638-IT1 / Fold change vs veh, ZNF638 /// ZNF638-IT1 / RFU, PANK3 / Fold change vs veh, PANK3 / RFU, SH3YL1 / Fold change vs veh, SH3YL1 / RFU, ZEB2 / Fold change vs veh, ZEB2 / RFU, NRIP1 / Fold change vs veh, NRIP1 / RFU, PTTG1IP / Fold change vs veh, PTTG1IP / RFU, CAPN2 / Fold change vs veh, CAPN2 / RFU, MED14 / Fold change vs veh, MED14 / RFU, SNORA58 / Fold change vs veh, SNORA58 / RFU, C1orf63 / Fold change vs veh, C1orf63 / RFU, LRRFIP1 / Fold change vs veh, LRRFIP1 / RFU, NDUFAF7 / Fold change vs veh, NDUFAF7 / RFU, SLC12A2 / Fold change vs veh, SLC12A2 / RFU, IBTK / Fold change vs veh, IBTK / RFU, ESF1 / Fold change vs veh, ESF1 / Fold change vs veh, TMEM50B / RFU, TAOK1 / Fold change vs veh, TAOK1 / RFU, ACBD3 / Fold change vs veh, ACBD3 / RFU, TMA16 / Fold change vs veh, TMA16 / RFU, RWDD3 / Fold change vs veh, RWDD3 / RFU, BCAT1 / Fold change vs veh, BCAT1 / RFU, EDEM3 / Fold change vs veh, EDEM3 / RFU, TMEM33 / Fold change vs veh, TMEM33 / RFU, WDR75 / Fold change vs veh, WDR75 / RFU, AHCTF1 / Fold change vs veh, AHCTF1 / RFU, TFRC / Fold change vs veh, TFRC / RFU, ZDHHC17 / Fold change vs veh, ZDHHC17 / RFU, NOM1 / Fold change vs veh, NOM1 / RFU, ARL8B / Fold change vs veh, ARL8B / RFU, ZBTB11 / Fold change vs veh, ZBTB11 / RFU, TAMM41 / Fold change vs veh, TAMM41 / RFU, KIAA1704 /// LOC100996395 / Fold change vs veh, KIAA1704 /// LOC100996395 / RFU, ING1 / Fold change vs veh, ING1 / RFU, TRMT61B / Fold change vs veh, TRMT61B / RFU, FUBP3 / Fold change vs veh, FUBP3 / RFU, TP53 / Fold change vs veh, TP53 / RFU, TNKS2 / Fold change vs veh, TNKS2 / RFU, ZFP14 / Fold change vs veh, ZFP14 / RFU, ACTR2 / Fold change vs veh, ACTR2 / RFU, PPP3R1 / Fold change vs veh, PPP3R1 / RFU, PIK3R1 / Fold change vs veh, PIK3R1 / RFU, HNRNPA1 / Fold change vs veh, HNRNPA1 / RFU, RNF170 / Fold change vs veh, RNF170 / RFU, ZNF28 / Fold change vs veh, ZNF28 / RFU, RNGTT / Fold change vs veh, RNGTT / RFU, OGT / Fold change vs veh, OGT / RFU, BRD1 / Fold change vs veh, BRD1 / RFU, MARS / Fold change vs veh, MARS / RFU, ZNF655 / Fold change vs veh, ZNF655 / RFU, FAHD1 / Fold change vs veh, FAHD1 / RFU, BDP1 / Fold change vs veh, BDP1 / RFU, LRRCC1 / Fold change vs veh, LRRCC1 / RFU, ARID1A / Fold change vs veh, ARID1A / RFU, ZNF146 / Fold change vs veh, ZNF146 / RFU, ZNF330 / Fold change vs veh, ZNF330 / RFU, GPN3 / Fold change vs veh, GPN3 / RFU, C9orf123 / Fold change vs veh, C9orf123 / RFU, N4BP2L2 / Fold change vs veh, N4BP2L2 / RFU, ARFIP1 / Fold change vs veh, ARFIP1 / RFU, FAM179B / Fold change vs veh, FAM179B / RFU, BCL10 / Fold change vs veh, BCL10 / RFU, UHRF1BP1L / Fold change vs veh, UHRF1BP1L / RFU, BET1 / Fold change vs veh, BET1 / RFU, CNOT2 / Fold change vs veh, CNOT2 / RFU, ZNF268 / Fold change vs veh, ZNF268 / Fold change vs veh, ZNF507 / RFU, DGCR2 / Fold change vs veh, DGCR2 / RFU, WDSUB1 / Fold change vs veh, WDSUB1 / Fold change vs veh, HSP90B1 /// MIR3652 / RFU, ADSS / Fold change vs veh, ADSS / RFU, GK / Fold change vs veh, GK / RFU, ZNF148 / Fold change vs veh, ZNF148 / RFU, TAF9 / Fold change vs veh, TAF9 / RFU, SLC1A5 / Fold change vs veh, SLC1A5 / RFU, SLMO2 / Fold change vs veh, SLMO2 / RFU, ABCC4 / Fold change vs veh, ABCC4 / RFU, LOC101060439 /// RAP1B / Fold change vs veh, LOC101060439 /// RAP1B / RFU, RFX7 / Fold change vs veh, RFX7 / RFU, GTPBP10 / Fold change vs veh, GTPBP10 / RFU, CNEP1R1 / Fold change vs veh, CNEP1R1 / RFU, BIVM-ERCC5 /// ERCC5 / Fold change vs veh, BIVM-ERCC5 /// ERCC5 / RFU, ILF3 / Fold change vs veh, ILF3 / RFU 11762660_at / Fold change /veh 11762660_at / RFU VCAN (11757783_s_at) / Fold change /veh VCAN (11757783_s_at) / RFU DDX43 (11728927_at) / Fold change /veh DDX43 (11728927_at) / RFU KRT8 (11758188_x_at) / Fold change /veh KRT8 (11758188_x_at) / RFU NKD1 (11759106_at) / Fold change /veh NKD1 (11759106_at) / RFU SRD5A1 (11742802_a_at) / Fold change /veh SRD5A1 (11742802_a_at) / RFU TPSAB1 /// TPSB2 (11721975_s_at) / Fold change /veh TPSAB1 /// TPSB2 (11721975_s_at) / RFU GSTM3 (11746129_a_at) / Fold change /veh GSTM3 (11746129_a_at) / RFU IL23R (11737362_x_at) / Fold change /veh IL23R (11737362_x_at) / RFU TMEM51 (11727254_a_at) / Fold change /veh TMEM51 (11727254_a_at) / RFU PIWIL2 (11732686_x_at) / Fold change /veh PIWIL2 (11732686_x_at) / RFU ORM1 (11744905_x_at) / Fold change /veh ORM1 (11744905_x_at) / RFU CCDC152 (11743942_at) / Fold change /veh CCDC152 (11743942_at) / RFU ECM1 (11717891_a_at) / Fold change /veh ECM1 (11717891_a_at) / RFU IL23R (11748794_a_at) / Fold change /veh IL23R (11748794_a_at) / RFU TNFAIP8L3 (11732012_x_at) / Fold change /veh TNFAIP8L3 (11732012_x_at) / RFU MBOAT4 (11741988_at) / Fold change /veh MBOAT4 (11741988_at) / RFU 11764193_at / Fold change /veh 11764193_at / RFU TMEM53 (11763286_at) / Fold change /veh TMEM53 (11763286_at) / RFU MAGEB2 (11727129_at) / Fold change /veh MAGEB2 (11727129_at) / RFU TMEM200A (11744735_a_at) / Fold change /veh TMEM200A (11744735_a_at) / RFU CCDC152 (11751479_a_at) / Fold change /veh CCDC152 (11751479_a_at) / RFU FAM211A (11726209_a_at) / Fold change /veh FAM211A (11726209_a_at) / RFU RGS16 (11746705_a_at) / Fold change /veh RGS16 (11746705_a_at) / RFU VCAN (11755009_s_at) / Fold change /veh VCAN (11755009_s_at) / RFU RHOB (11743442_s_at) / Fold change /veh RHOB (11743442_s_at) / RFU RGS16 (11720943_a_at) / Fold change /veh RGS16 (11720943_a_at) / RFU RGS16 (11720944_at) / Fold change /veh RGS16 (11720944_at) / RFU, VPS4B / Fold change vs veh, VPS4B / RFU, CREB1 / Fold change vs veh, CREB1 / RFU, DNAJC13 / Fold change vs veh, DNAJC13 / RFU, GNAQ / Fold change vs veh, GNAQ / RFU, CDK5R1 / Fold change vs veh, CDK5R1 / RFU, ZRANB3 / Fold change vs veh, ZRANB3 / RFU, CUL4A / Fold change vs veh, CUL4A / RFU, CCNY / Fold change vs veh, CCNY / RFU, UFL1 / Fold change vs veh, UFL1 / RFU, COG3 / Fold change vs veh, COG3 / RFU, DIAPH2 / Fold change vs veh, DIAPH2 / RFU, SKA2 / Fold change vs veh, SKA2 / RFU, AFF3 / Fold change vs veh, AFF3 / RFU, LMF1 / Fold change vs veh, LMF1 / RFU, IPO11 / Fold change vs veh, IPO11 / RFU, DFFB / Fold change vs veh, DFFB / RFU, FOXP1 / Fold change vs veh, FOXP1 / RFU, CARD8 / Fold change vs veh, CARD8 / RFU, STRN3 / Fold change vs veh, STRN3 / RFU, ADK / Fold change vs veh, ADK / RFU, RASSF2 / Fold change vs veh, RASSF2 / RFU, WIPF1 / Fold change vs veh, WIPF1 / RFU, LARP1B / Fold change vs veh, LARP1B / RFU, RASA1 / Fold change vs veh, RASA1 / RFU, RB1 / Fold change vs veh, RB1 / RFU, PPFIA1 / Fold change vs veh, PPFIA1 / RFU, MAT2A / Fold change vs veh, MAT2A / RFU, CCT5 / Fold change vs veh, CCT5 / RFU, WDR92 / Fold change vs veh, WDR92 / RFU, CUX1 / Fold change vs veh, CUX1 / RFU, TTC7A / Fold change vs veh, TTC7A / RFU, TMEM135 / Fold change vs veh, TMEM135 / RFU, DEPTOR / Fold change vs veh, DEPTOR / RFU, CPM / Fold change vs veh, CPM / RFU, DNAJB6 / Fold change vs veh, DNAJB6 / RFU, CACNA2D3 / Fold change vs veh, CACNA2D3 / RFU, DTX4 / Fold change vs veh, DTX4 / RFU, TFCP2 / Fold change vs veh, TFCP2 / RFU, GMCL1 /// GMCL1P1 / Fold change vs veh, GMCL1 /// GMCL1P1 / RFU, AEBP2 / Fold change vs veh, AEBP2 / RFU, SNHG1 /// SNORD22 /// SNORD25 /// SNORD26 /// SNORD27 /// SNORD28 /// SNORD29 /// SNORD31 / Fold change vs veh, SNHG1 /// SNORD22 /// SNORD25 /// SNORD26 /// SNORD27 /// SNORD28 /// SNORD29 /// SNORD31 / Fold change (Aza/veh), C12orf56 (ProbeSet 11735607_a_at) / Fold change (ACY-1035/veh), C12orf56 (ProbeSet 11735607_a_at) / Fold change (Aza/veh), FGFR1OP (ProbeSet 11751329_s_at) / Fold change (ACY-1035/veh), FGFR1OP (ProbeSet 11751329_s_at) / Fold change (Aza/veh), VPS36 (ProbeSet 11739960_a_at) / Fold change (ACY-1035/veh), VPS36 (ProbeSet 11739960_a_at) / RFU SYPL1 (11715823_x_at) / Fold change /veh SYPL1 (11715823_x_at) / RFU IGFBP7 (11715501_s_at) / Fold change /veh IGFBP7 (11715501_s_at) / RFU REEP3 (11722064_at) / Fold change /veh REEP3 (11722064_at) / RFU IGLL1 (11728026_x_at) / Fold change /veh IGLL1 (11728026_x_at): dose or concentration left out as unconfirmed
Details: MV-4-11 cells, 48 hours

For Nc1ncn([C@@H]2O[C@H](CO)[C@@H](O)[C@H]2O)c(=O)n1 [azacitidine], the “RFU CAPN14 (11732068_a_at)” value was 10.94 RFU.

— article PMC5218480 (PLoS ONE, 2017)
